The assay addresses recombinant HCV NS5B (genotype 1b) NS5BCΔ21 (Hepatitis C virus genotype 1b, UniProt P26663). Kind of assay: in vitro NS5B RNA dependent RNA polymerase. The assay is classed as biochemical. Particulars: Supplementary data, Table S1.
As for `O=C(O)CN1C(=O)C(=Cc2ccccc2)SC1=S` [2-(5-benzylidene-4-oxo-2-thioxothiazolidin-3-yl)acetic acid], the “NS5B inhibitory activity (in words)” value is “either inactive or poorly active”.

Consider `O=C(O)CN1C(=O)CSC1=S` [2-(4-oxo-2-thioxothiazolidin-3-yl)acetic acid], for which the “NS5B inhibitory activity (in words)” value was “either inactive or poorly active”. For `CCN1C(=O)C(=Cc2ccc(Cl)cc2Cl)SC1=S` [5-(2,4-dichlorobenzylidene)-3-ethyl-2-thioxothiazolidin-4-one] the value was “either inactive or poorly active”.

These data come from publication PMC2956004 (Bioorganic & medicinal chemistry, 2010).
